How the values were obtained:
Assay in all cases: relative viability (nuclei count vs DMSO), 5 days (fraction); higher = more cells survive
[1] = compound: O=C(O)c1ccc2c(c1)nc(Nc1cccc(Cl)c1)c1ccncc12 [Silmitasertib] + Cc1nc(NC(=O)N2CCC[C@H]2C(N)=O)sc1-c1ccnc(C(C)(C)C(F)(F)F)c1 [Alpelisib] (partner 2 µM)
Summary of the method: (§1)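 Lung cancer cell lines were pin-tool dosed in 1536-well plates on the day after seeding, with either a lone drug or a fixed anchor-drug dose plus five library-drug doses (not always all listed) in √10 steps. Nuclei were counted on 4× images after 5 days. Relative viability is the ratio of treated-well to vehicle-well nuclei counts, with each value a median of duplicate plates.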

[2] = compound: O=C(O)c1ccc2c(c1)nc(Nc1cccc(Cl)c1)c1ccncc12 [Silmitasertib] + C[C@@H](Oc1cc(-c2cnn(C3CCNCC3)c2)cnc1N)c1c(Cl)ccc(F)c1Cl [Crizotinib] (partner 1 µM)
Summary of the method: as §1

[3] = compound: O=C(O)c1ccc2c(c1)nc(Nc1cccc(Cl)c1)c1ccncc12 [Silmitasertib] + COc1cc2c(Oc3ccc(NC(=O)C4(C(=O)Nc5ccc(F)cc5)CC4)cc3F)ccnc2cc1OCCCN1CCOCC1 [Foretinib] (partner 0.25 µM)
Summary of the method: as §1

[4] = compound: O=C(O)c1ccc2c(c1)nc(Nc1cccc(Cl)c1)c1ccncc12 [Silmitasertib] + N=C(N)NC(=N)NCCc1ccccc1 [Phenformin] (partner 250 µM)
Summary of the method: as §1

Silmitasertib + OSI-027 = compound: O=C(O)c1ccc2c(c1)nc(Nc1cccc(Cl)c1)c1ccncc12 [Silmitasertib] + COc1cccc2cc(-c3nc([C@H]4CC[C@H](C(=O)O)CC4)n4ncnc(N)c34)[nH]c12 [OSI-027] (partner 0.5 µM)
Summary of the method: as §1

Row | Cell Line | relative viability ([1]; first compound 0.04 µM) | relative viability ([1]; first compound 1.265 µM) | relative viability ([1]; first compound 4 µM) | relative viability ([2]; first compound 0.04 µM) | relative viability ([2]; first compound 1.265 µM) | relative viability ([2]; first compound 4 µM) | relative viability ([3]; first compound 0.04 µM) | relative viability ([3]; first compound 0.4 µM) | relative viability ([3]; first compound 1.265 µM) | relative viability ([3]; first compound 4 µM) | relative viability ([4]; first compound 0.04 µM) | relative viability ([4]; first compound 0.4 µM) | relative viability ([4]; first compound 1.265 µM) | relative viability ([4]; first compound 4 µM) | relative viability (Silmitasertib + OSI-027; first compound 0.04 µM) | relative viability (Silmitasertib + OSI-027; first compound 0.4 µM) | relative viability (Silmitasertib + OSI-027; first compound 1.265 µM) | relative viability (Silmitasertib + OSI-027; first compound 4 µM) | relative viability ([1]; first compound 0.4 µM) | relative viability ([2]; first compound 0.4 µM)
1 | HCC-366 | 0.453 | 0.317 | 0.383 | 0.581 | 0.472 | 0.395 | 1 | 0.877 | 0.78 | 1.02 | 0.698 | 0.42 | 0.6 | 0.24 | 0.896 | 0.489 | 0.7 | 0.0818 |  | 
2 | HCC-827 | 1.03 | 1.07 | 1.03 | 0.993 | 0.952 | 1.01 | 1.09 |  | 1.06 | 1.2 | 0.436 |  | 0.413 | 0.376 | 0.872 |  | 0.702 | 0.736 |  | 
3 | HOP-62 | 1.03 | 0.867 | 0.678 | 0.914 | 0.943 | 0.49 | 1.1 |  | 1.18 | 1.14 | 0.624 |  | 0.662 | 0.608 | 0.897 |  | 0.905 | 0.497 |  | 
4 | LC-2-ad | 0.78 | 0.783 | 0.827 | 0.421 | 0.37 | 0.417 | 1.14 | 0.891 | 0.898 | 0.827 | 0.645 | 0.59 | 0.488 | 0.314 | 0.982 | 0.709 | 0.721 | 0.483 | 0.87 | 0.423
5 | LCLC-97TM1 | 0.216 | 0.165 | 0.14 | 0.593 | 0.339 | 0.141 | 0.905 |  | 0.809 | 0.861 | 0.477 |  | 0.328 | 0.295 | 0.545 |  | 0.339 | 0.198 |  | 
6 | LCLC-103H | 0.995 | 0.971 | 0.939 | 1.03 | 1 | 0.713 | 0.828 | 0.74 | 0.632 | 0.625 | 0.314 | 0.307 | 0.32 | 0.23 | 0.519 | 0.4 | 0.438 | 0.384 | 1.01 | 1.06
7 | LK-2 | 1.28 | 0.914 | 0.943 | 0.198 | 0.245 | 0.187 | 1.07 |  | 1.08 | 0.818 | 0.485 |  | 0.415 | 0.271 | 0.266 |  | 0.247 | 0.184 | 0.921 | 0.333
8 | LOU-NH91 | 0.8 | 0.612 | 0.593 | 0.755 | 0.676 | 0.683 | 0.948 | 0.786 | 0.859 | 0.827 | 0.812 | 0.617 | 0.584 | 0.423 | 0.709 | 0.665 | 0.629 | 0.543 | 0.614 | 0.585
9 | LU99A | 0.502 | 0.399 | 0.471 | 0.583 | 0.558 | 0.591 | 0.823 | 0.833 | 0.844 | 0.738 | 0.883 | 0.883 | 0.848 | 0.518 | 0.276 | 0.293 | 0.314 | 0.255 | 0.521 | 0.725

From the supplement of paper PMC10307832
